Source: patent US6914045B2, “Glycopeptide antibiotics” (Wyeth Holdings Corporation, priority 2001, dated 2005)

What was measured:
Assay in all cases: in vitro antibacterial evaluation, MIC by broth dilution
Assay type in all cases: cell-based
Staphylococcus sp. = conditions: broth dilution, 18 hours at 35° C.; for MIC Staphylococcus aureus (ATCC 29213): strain ATCC 29213; for MIC Staphylococcus aureus (GC 1131): strain GC 1131; for MIC Staphylococcus aureus (GC 3051): strain GC 3051; for MIC Staphylococcus aureus (GC 3053): strain GC 3053; for MIC Staphylococcus aureus (GC 4541): strain GC 4541; for MIC Staphylococcus aureus (GC 4542): strain GC 4542; for MIC Staphylococcus aureus-SMITH (GC 4543): strain GC 4543; for MIC Staphylococcus aureus (GC 4544): strain GC 4544; for MIC Staphylococcus aureus (GC 4545): strain GC 4545; for MIC Staphylococcus haemolyticus (GC 4546): strain GC 4546; for MIC Coagulase Negative Staphylococcus (GC 4547): strain GC 4547; for MIC Coagulase Negative Staphylococcus (GC 4548): strain GC 4548; for MIC Coagulase Negative Staphylococcus (GC 4549): strain GC 4549; for MIC Coagulase Negative Staphylococcus (GC 4551): strain GC 4551
Experimental: (§1) Methods for in vitro Antibacterial Evaluation (Table 1)
(§2) The minimum inhibitory concentration (MIC), the lowest concentration of the antibiotic which inhibits growth of the test organism, is determined by the broth dilution method using Muller-Hinton II […] (Baltimore Biological Laboratories) following the recommendations of the National Committee for Clinical Laboratory Standards [Methods for dilution antimicrobial susceptibility tests for bacteria that grow aerobically, approved standard M7-A2, National Committee for Clinical Laboratory Standards, Villanova, Pa.].
(§3) An inoculum level of 5×10^5 CFU/mL, and a range of antibiotic concentrations (64-0.06 μg/mL) is used. […] The test organisms include a spectrum of Gram-positive bacteria comprised of Staphylococcus sp., Streptococcus sp. and Enterococcus sp. These organisms include recent clinical isolates that are resistant to methicillin, penicillin and/or vancomycin.

Streptococcus sp. = conditions: broth dilution, 18 hours at 35° C.; for MIC Streptococcus pneumoniae (ATCC 6301): strain ATCC 6301; for MIC Streptococcus pneumoniae (GC 1894): strain GC 1894; for MIC Streptococcus pyogenes (GC 4563): strain GC 4563; for MIC Streptococcus agalactiae (GC 4564): strain GC 4564; for MIC Streptococcus pneumoniae (GC 4565): strain GC 4565
Experimental: as §1, §2, §3

Enterococcus sp. = conditions: broth dilution, 18 hours at 35° C.; for MIC Enterococcus faecalis (ATCC 29212): strain ATCC 29212; for MIC Enterococcus faecalis (GC 2242): strain GC 2242; for MIC Enterococcus faecium (GC 2243): strain GC 2243; for MIC Enterococcus faecalis (GC 2691): strain GC 2691; for MIC Enterococcus faecalis (GC 3059): strain GC 3059; for MIC Enterococcus faecalis (GC 4552): strain GC 4552; for MIC Enterococcus faecalis (GC 4553): strain GC 4553; for MIC Enterococcus faecalis (GC 4554): strain GC 4554; for MIC Enterococcus faecium (GC 4556): strain GC 4556; for MIC Enterococcus faecium (GC 4557): strain GC 4557; for MIC Enterococcus avium (GC 4558): strain GC 4558; for MIC Enterococcus faecalis (GC 6189): strain GC 6189
Experimental: as §1, §2, §3

Escherichia coli = conditions: broth dilution, 18 hours at 35° C.; for MIC Escherichia coli (ATCC 25922): strain ATCC 25922; for MIC Escherichia coli (GC 4559): strain GC 4559; for MIC Escherichia coli (GC 4560): strain GC 4560
How it was run: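 Broth dilution in Muller-Hinton II medium per NCCLS standard M7-A2, with an inoculum of 5×10^5 CFU/mL and antibiotic tested over 64-0.06 μg/mL. MIC was taken as the lowest concentration inhibiting visible growth.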

CC(c1ccccc1)C1NC(=O)CNC(=O)C(CO)NC(=O)C(C(O)C2CNC(=N)N2C2OC(CO)C(O)C(O)C2O)NC(=O)C(C(O)C2CNC(=N)N2)NC(=O)C(Cc2ccc3oc(SCc4ccc(-c5ccccc5)cc4)nc3c2)NC1=O (stereo not drawn) [Example 47]
0.5 µg/mL: MIC Coagulase Negative Staphylococcus (GC 4549) (Staphylococcus sp.)
16 µg/mL: MIC Staphylococcus aureus (ATCC 29213) (Staphylococcus sp.) | MIC Staphylococcus aureus (GC 3053) (Staphylococcus sp.) | MIC Staphylococcus aureus (GC 4541) (Staphylococcus sp.) | MIC Staphylococcus aureus (GC 4542) (Staphylococcus sp.) | MIC Staphylococcus aureus (GC 4544) (Staphylococcus sp.) | MIC Staphylococcus aureus (GC 4545) (Staphylococcus sp.) | MIC Coagulase Negative Staphylococcus (GC 4547) (Staphylococcus sp.) | MIC Enterococcus faecalis (GC 4552) (Enterococcus sp.)
32 µg/mL: MIC Staphylococcus aureus (GC 1131) (Staphylococcus sp.) | MIC Staphylococcus aureus (GC 3051) (Staphylococcus sp.) | MIC Enterococcus faecalis (GC 2691) (Enterococcus sp.) | MIC Enterococcus faecalis (GC 3059) (Enterococcus sp.) | MIC Enterococcus faecalis (GC 6189) (Enterococcus sp.) | MIC Escherichia coli (GC 4560) (Escherichia coli)
>64 µg/mL: MIC Escherichia coli (ATCC 25922) (Escherichia coli) | MIC Escherichia coli (GC 4559) (Escherichia coli)
64 µg/mL: MIC Enterococcus faecalis (GC 4554) (Enterococcus sp.)
2 µg/mL: MIC Coagulase Negative Staphylococcus (GC 4548) (Staphylococcus sp.) | MIC Streptococcus pneumoniae (GC 1894) (Streptococcus sp.) | MIC Streptococcus agalactiae (GC 4564) (Streptococcus sp.) | MIC Enterococcus avium (GC 4558) (Enterococcus sp.)
4 µg/mL: MIC Streptococcus pneumoniae (ATCC 6301) (Streptococcus sp.) | MIC Enterococcus faecalis (GC 2242) (Enterococcus sp.) | MIC Enterococcus faecium (GC 2243) (Enterococcus sp.) | MIC Enterococcus faecalis (GC 4553) (Enterococcus sp.) | MIC Enterococcus faecium (GC 4557) (Enterococcus sp.)
8 µg/mL: MIC Staphylococcus aureus-SMITH (GC 4543) (Staphylococcus sp.) | MIC Staphylococcus haemolyticus (GC 4546) (Staphylococcus sp.) | MIC Coagulase Negative Staphylococcus (GC 4551) (Staphylococcus sp.) | MIC Streptococcus pneumoniae (GC 4565) (Streptococcus sp.) | MIC Enterococcus faecalis (ATCC 29212) (Enterococcus sp.) | MIC Enterococcus faecium (GC 4556) (Enterococcus sp.)
1 µg/mL: MIC Streptococcus pyogenes (GC 4563) (Streptococcus sp.)

CC(c1ccccc1)C1NC(=O)CNC(=O)C(CO)NC(=O)C(C(O)C2CNC(=N)N2C2OC(CO)C(O)C(O)C2O)NC(=O)C(C(O)C2CNC(=N)N2)NC(=O)C(Cc2ccc3oc(SCC(=O)c4ccccc4)nc3c2)NC1=O (stereo not drawn) [Example 48]
64 µg/mL: MIC Enterococcus faecalis (ATCC 29212) (Enterococcus sp.) | MIC Enterococcus faecalis (GC 2242) (Enterococcus sp.) | MIC Enterococcus faecalis (GC 2691) (Enterococcus sp.) | MIC Enterococcus faecalis (GC 3059) (Enterococcus sp.) | MIC Enterococcus faecalis (GC 4552) (Enterococcus sp.) | MIC Enterococcus faecalis (GC 4554) (Enterococcus sp.) | MIC Enterococcus faecium (GC 4556) (Enterococcus sp.) | MIC Enterococcus faecalis (GC 6189) (Enterococcus sp.)
8 µg/mL: MIC Staphylococcus haemolyticus (GC 4546) (Staphylococcus sp.) | MIC Coagulase Negative Staphylococcus (GC 4548) (Staphylococcus sp.) | MIC Streptococcus pneumoniae (GC 1894) (Streptococcus sp.) | MIC Streptococcus pyogenes (GC 4563) (Streptococcus sp.) | MIC Enterococcus avium (GC 4558) (Enterococcus sp.)
4 µg/mL: MIC Coagulase Negative Staphylococcus (GC 4547) (Staphylococcus sp.) | MIC Coagulase Negative Staphylococcus (GC 4549) (Staphylococcus sp.) | MIC Enterococcus faecium (GC 4557) (Enterococcus sp.) | MIC Escherichia coli (GC 4560) (Escherichia coli)
32 µg/mL: MIC Staphylococcus aureus (ATCC 29213) (Staphylococcus sp.) | MIC Streptococcus pneumoniae (GC 4565) (Streptococcus sp.) | MIC Escherichia coli (ATCC 25922) (Escherichia coli) | MIC Escherichia coli (GC 4559) (Escherichia coli)
16 µg/mL: MIC Staphylococcus aureus (GC 1131) (Staphylococcus sp.) | MIC Staphylococcus aureus (GC 3051) (Staphylococcus sp.) | MIC Staphylococcus aureus (GC 3053) (Staphylococcus sp.) | MIC Staphylococcus aureus (GC 4541) (Staphylococcus sp.) | MIC Staphylococcus aureus (GC 4542) (Staphylococcus sp.) | MIC Staphylococcus aureus-SMITH (GC 4543) (Staphylococcus sp.) | MIC Staphylococcus aureus (GC 4544) (Staphylococcus sp.) | MIC Staphylococcus aureus (GC 4545) (Staphylococcus sp.) | MIC Coagulase Negative Staphylococcus (GC 4551) (Staphylococcus sp.) | MIC Streptococcus pneumoniae (ATCC 6301) (Streptococcus sp.) | MIC Streptococcus agalactiae (GC 4564) (Streptococcus sp.) | MIC Enterococcus faecium (GC 2243) (Enterococcus sp.) | MIC Enterococcus faecalis (GC 4553) (Enterococcus sp.)

CC(c1ccccc1)C1NC(=O)CNC(=O)C(CO)NC(=O)C(C(O)C2CNC(=N)N2C2OC(CO)C(O)C(O)C2O)NC(=O)C(C(O)C2CNC(=N)N2)NC(=O)C(Cc2ccc3oc(SCC(=O)c4ccc(Cl)cc4)nc3c2)NC1=O (stereo not drawn) [Example 49]
4 µg/mL: MIC Staphylococcus aureus (GC 1131) (Staphylococcus sp.) | MIC Staphylococcus aureus (GC 3051) (Staphylococcus sp.) | MIC Staphylococcus aureus (GC 3053) (Staphylococcus sp.) | MIC Staphylococcus aureus (GC 4541) (Staphylococcus sp.) | MIC Staphylococcus aureus (GC 4542) (Staphylococcus sp.) | MIC Staphylococcus aureus (GC 4544) (Staphylococcus sp.) | MIC Coagulase Negative Staphylococcus (GC 4547) (Staphylococcus sp.) | MIC Coagulase Negative Staphylococcus (GC 4551) (Staphylococcus sp.) | MIC Streptococcus agalactiae (GC 4564) (Streptococcus sp.) | MIC Enterococcus faecalis (GC 4553) (Enterococcus sp.) | MIC Enterococcus avium (GC 4558) (Enterococcus sp.) | MIC Escherichia coli (GC 4560) (Escherichia coli)
16 µg/mL: MIC Enterococcus faecalis (ATCC 29212) (Enterococcus sp.) | MIC Enterococcus faecalis (GC 2242) (Enterococcus sp.) | MIC Enterococcus faecalis (GC 2691) (Enterococcus sp.) | MIC Enterococcus faecalis (GC 4554) (Enterococcus sp.) | MIC Enterococcus faecalis (GC 6189) (Enterococcus sp.) | MIC Escherichia coli (ATCC 25922) (Escherichia coli)
8 µg/mL: MIC Staphylococcus aureus (ATCC 29213) (Staphylococcus sp.) | MIC Streptococcus pneumoniae (ATCC 6301) (Streptococcus sp.) | MIC Streptococcus pneumoniae (GC 1894) (Streptococcus sp.) | MIC Streptococcus pneumoniae (GC 4565) (Streptococcus sp.) | MIC Enterococcus faecium (GC 2243) (Enterococcus sp.) | MIC Enterococcus faecium (GC 4556) (Enterococcus sp.) | MIC Escherichia coli (GC 4559) (Escherichia coli)
2 µg/mL: MIC Staphylococcus aureus-SMITH (GC 4543) (Staphylococcus sp.) | MIC Staphylococcus aureus (GC 4545) (Staphylococcus sp.) | MIC Coagulase Negative Staphylococcus (GC 4548) (Staphylococcus sp.) | MIC Streptococcus pyogenes (GC 4563) (Streptococcus sp.) | MIC Enterococcus faecalis (GC 4552) (Enterococcus sp.) | MIC Enterococcus faecium (GC 4557) (Enterococcus sp.)
1 µg/mL: MIC Staphylococcus haemolyticus (GC 4546) (Staphylococcus sp.) | MIC Coagulase Negative Staphylococcus (GC 4549) (Staphylococcus sp.)
32 µg/mL: MIC Enterococcus faecalis (GC 3059) (Enterococcus sp.)
